# Literature values in patent US20040220135A1 (priority 2003, published 2004).
# Tested on: liver metastases
# Conditions: Gray et al (2001) Annals of Oncology 12: 1711-1720
smiles,measurement,value
O=c1[nH]c(=O)n([C@H]2C[C@H](O)[C@@H](CO)O2)cc1F [floxuridine],Response rate,17.6%
same,Time to disease progression,9.7 months
